In article PMC6567057, “Pharmacokinetic, metabolic stability, plasma protein binding and CYP450s inhibition/induction assessment studies of N-(2-pyridylmethyl)-2-hydroxiymethyl-1-pyrrolidinyl-4-(3-chloro-4-methoxy-benzylamino)-5-pyrimidine-carboxamide as potential type 5 phosphodiesterase inhibitors” (Animal Cells and Systems, 2019):

Assays:
rat plasma proteins = experiment: Plasma protein binding by equilibrium dialysis (rat); assay type: in vitro ADME, Sprague–Dawley rat; conditions: rat plasma, equilibrium dialysis, n = 3
Procedure: (§1) The phosphate buffer (100 mM) and sodium hydroxide solution (1.0 M) were prepared in deionized water. […] PPB was determined by equilibrium dialysis method. An aliquot (150 μL) of NHPPC spiked plasma and phosphate buffer (pH 7.4) was added into the donor side and the receiver side of each designated well. The plate was covered with adhesive sealing film to prevent evaporation and placed in a water-bath shaker kept at 37°C for 6 h with a rate of 50 rpm. […] At the end of 6 h, aliquots were taken from each side of each well (n = 3) and kept in a −20°C freezer prior to analysis. The stability, device recovery and PPB were calculated using the following equations: Remaining at 6 h (%)=C6h/C0h×100%, Device recovery (%)=CDonor+CReceiver/C6h×100%, PPB (%)=CDonor−CReceiver/CDonor×100%.

dog plasma proteins = experiment: Plasma protein binding by equilibrium dialysis (dog); assay type: in vitro ADME, Beagle dog; conditions: dog plasma, equilibrium dialysis, n = 3
Procedure: as §1

human plasma proteins = experiment: Plasma protein binding by equilibrium dialysis (human); assay type: in vitro ADME; conditions: human plasma, equilibrium dialysis, n = 3
Procedure: as §1

## CC(=O)CC(c1ccccc1)c1c(O)c2ccccc2oc1=O (stereo not drawn) [Warf, reference compound]
Rat plasma proteins
  Mean device recovery %: 107.9 ± 0.03%
Dog plasma proteins
  Mean device recovery %: 100.7 ± 0.49%
Human plasma proteins
  Mean device recovery %: 107.0 ± 0.25%
